Read-outs that look alike come from different tables or passages of the source.
Columns and labels:
in vitro [1] = conditions: dog
LN-229 (glioblastoma) = assay: MTS proliferation assay, LN-229; conditions: Homo sapiens, LN-229, 72 h, read-out: Anti-Proliferative Activity (IC50) LN-229
[2] = system: variety of viruses (HSV-1, influenza viruses, yellow fever virus, Zika virus, RSV, HCoV-229E, HCoV-OC43, HCoV-NL63); type: cell-based; conditions: CPE reduction assays, virus panel
Zika virus (ZikV mr766) = assay: Antiviral CPE reduction assay, Zika virus mr766 in VeroE6 cells; type: cell-based; conditions: Zika virus, Vero C1008, MTS, mean ± SD, no unit printed on the supplement page (Table 2 of the same screen is in µM)
[3] = system: K-562 (chronic myeloid leukemia); assay: MTS proliferation assay, K-562; conditions: Homo sapiens, K562, 72 h, read-out: Anti-Proliferative Activity (IC50) K-562
HCoV-OC43 = assay: Antiviral CPE reduction assay, HCoV-OC43 in HEL299 cells; type: cell-based, human coronavirus OC43; conditions: Betacoronavirus 1, OC43, HEL 299, MTS, mean ± SD of two or three independent experiments
[4] = system: HL-60 (acute myeloid leukemia); assay: MTS proliferation assay, HL-60; conditions: Homo sapiens, HL-60, 72 h, read-out: Anti-Proliferative Activity (IC50) HL-60
[5] = system: respiratory syncytial virus A (RSV A Long); assay: Antiviral CPE reduction assay, RSV A Long in Hep2 cells; type: cell-based; conditions: human respiratory syncytial virus, HEp-2; Hep2 cells; CPE reduction, MTS; mean ± SD of two or three independent experiments; read-out: Antiviral Activity (EC50) RSV A Long
[6] = system: DND-41 (acute lymphoblastic leukemia); assay: MTS proliferation assay, DND-41; conditions: Homo sapiens, DND41, 72 h, read-out: Anti-Proliferative Activity (IC50) DND-41
[7] = system: Z-138 (non-Hodgkin lymphoma); assay: MTS proliferation assay, Z-138; conditions: Homo sapiens, Z-138, 72 h, read-out: Anti-Proliferative Activity (IC50) Z-138
[8] = system: HCT-116 (colorectal carcinoma); assay: MTS proliferation assay, HCT-116; conditions: Homo sapiens, HCT-116, 72 h, read-out: Anti-Proliferative Activity (IC50) HCT-116
HCoV-NL63 = assay: Antiviral CPE reduction assay, HCoV-NL63 in Hep3B cells; type: cell-based, human coronavirus NL63; conditions: Human coronavirus NL63, MTS, mean ± SD of two or three independent experiments
in vitro [9] = conditions: African green monkey
[10] = system: yellow fever virus (YFV 17D); assay: microbe, parasite or virus in culture; type: cell-based; conditions: Yellow fever virus, Vero C1008, read-out: Antiviral activity (EC50) YFV 17D
[11] = system: influenza A/H1N1 (A/Ned/378/05); assay: Antiviral CPE reduction assay, influenza A/H1N1 in MDCK cells; type: cell-based, influenza A virus; conditions: Influenza A virus, H1N1; MDCK cells; CPE reduction, MTS; mean ± SD of two or three independent experiments; read-out: Antiviral Activity (EC50) Influenza H1N1
HCoV-229E = assay: Antiviral CPE reduction assay, HCoV-229E in HEL299 cells; type: cell-based, human coronavirus 229E; conditions: Human coronavirus 229E, HEL 299, MTS, mean ± SD of two or three independent experiments
[12] = system: influenza B (B/Ned/537/05); assay: Antiviral CPE reduction assay, influenza B in MDCK cells; type: cell-based, influenza B virus; conditions: Influenza B virus, read-out: Antiviral Activity (EC50) Influenza B
[13] = system: NCI-H460 (lung carcinoma); assay: MTS proliferation assay, NCI-H460; conditions: Homo sapiens, NCI-H460, 72 h, read-out: Anti-Proliferative Activity (IC50) NCI-H460
[14] = system: Capan-1 (pancreatic adenocarcinoma); assay: MTS proliferation assay, Capan-1; conditions: Homo sapiens, CAPAN-1, 72 h, read-out: Anti-Proliferative Activity (IC50) Capan-1
[15] = system: herpes simplex virus-1 (HSV-1 KOS); assay: Antiviral CPE reduction assay, HSV-1 KOS in HEL299 cells; type: cell-based; conditions: Human alphaherpesvirus 1, HEL 299, MTS, mean ± SD, no unit printed on the supplement page (Table 2 of the same screen is in µM)
[16] = system: influenza A/H3N2 (A/HK/7/87); assay: Antiviral CPE reduction assay, influenza A/H3N2 in MDCK cells; type: cell-based, influenza A virus; conditions: Influenza A virus, H3N2; MDCK cells; CPE reduction, MTS; mean ± SD of two or three independent experiments; read-out: Antiviral Activity (EC50) Influenza H3N2
in vitro [17] = conditions: human
in vitro [18] = conditions: human; remark: listed apart in the source
in vitro [19] = conditions: human; remark: listed apart in the source
[20] = system: eight diverse human cancer cell lines; assay: MTS proliferation assay, panel of eight human cancer cell lines (statements for the whole panel); conditions: 72 h, read-out: CC50 values (cytotoxic activity) in the cancer cell line panel

Row | SMILES | CC50 (in vitro [1]) [µM] | IC50 (LN-229 (glioblastoma)) [µM] | EC50 (Zika virus (ZikV mr766)) [µM] | IC50 [3] [µM] | EC50 (HCoV-OC43) [µM] | IC50 [4] [µM] | EC50 [5] [µM] | IC50 [6] [µM] | IC50 [7] [µM] | IC50 [8] [µM] | EC50 (HCoV-NL63) [µM] | CC50 (in vitro [9]) [µM] | EC50 [10] [µM] | EC50 [11] [µM] | EC50 (HCoV-229E) [µM] | EC50 ([12]; MDCK) [µM] | IC50 [13] [µM] | IC50 [14] [µM] | EC50 [15] [µM] | EC50 [16] [µM] | other results
1 | C#Cc1cccc(Nc2ncnc3nc(N4CCN(C)CC4)ncc23)c1 [Compound 7h, N-(3-ethynylphenyl)-7-(4-methylpiperazin-1-yl)pyrimido[4,5-d]pyrimidin-4-amine] | > 50 | 97.1 ± 1.5 | > 50 | 52.3 ± 4.4 | > 50 | 79.1 ± 4.6 | > 50 | 66.5 ± 0.8 | 52.6 ± 1.4 | > 100 | > 50 | > 50 | > 50 | > 50 | > 50 | > 50 | > 100 | > 100 | > 50 | > 50 | antiviral activity (in words) [2]: inactive; melting point: 290 °C
2 | CN1CCN(c2ncc3c(Nc4cccnc4)ncnc3n2)CC1 [Compound 7k, 7-(4-methylpiperazin-1-yl)-N-(pyridin-3-yl)pyrimido[4,5-d]pyrimidin-4-amine] | > 50 | > 100 | > 50 | > 100 | > 50 | > 100 | > 50 | > 100 | > 100 | > 100 | > 50 | > 50 | > 50 | > 50 | > 50 | > 50 | > 100 | > 100 | > 50 | > 50 | antiviral activity (in words) [2]: inactive; melting point: > 300 °C; CC50 (in vitro [17]): > 50 µM; CC50 (in vitro [18]): > 50 µM; CC50 (in vitro [19]): > 50 µM
3 | C#Cc1cccc(Nc2ncnc3cc4c(cc23)OCCOCCOCCO4)c1 [Icotinib, icotinib, reference compound] | > 100 | > 100 | > 100 | > 100 | > 100 | > 100 | > 100 | > 100 | > 100 | > 100 | > 100 | > 100 | > 100 | > 100 | > 100 | – | > 100 | > 100 | > 100 | > 100 | CC50 (in vitro [17]): > 100 µM; CC50 (in vitro [18]): > 100 µM; EC50 ([12]; MDCK cells, CPE reduction, MTS, mean ± SD of two or three independent experiments): > 100 µM; CC50 (in vitro [19]): > 100 µM; CC50 [20]: > 100 µM
4 | C=CC(=O)Nc1cccc(Oc2nc(Nc3ccc(N4CCN(C)CC4)cc3OC)ncc2Cl)c1 [WZ4002, reference compound] | > 100 | > 100 | > 100 | > 100 | > 100 | > 100 | > 100 | > 100 | > 100 | > 100 | > 100 | > 100 | > 100 | > 100 | 41.8 ± 9.8 | > 100 | > 100 | > 100 | > 100 | > 100 | CC50 (in vitro [17]): > 100 µM; CC50 (in vitro [18]): > 100 µM; CC50 (in vitro [19]): > 100 µM; CC50 [20]: > 100 µM

From article PMC11643962, “Exploring 4,7-Disubstituted Pyrimido[4,5-d]pyrimidines as Antiviral and Anticancer Agents” (Molecules, 2024)
